Test results as given in patent US20240132480A1, “INHIBITORS OF MYCOBACTERIUM TUBERCULOSIS LIPOAMIDE DEHYDROGENASE” (Cornell University, priority 2021, published 2024).
Like-named read-outs stand apart in the source and are kept apart here.

Target: Mtb Lpd (Mycobacterium tuberculosis (strain ATCC 25618 / H37Rv), UniProt P9WHH9)
Assay type: biochemical

| Compound | IC50 (read-out: LPD IC50) | IC50 (30 min preincubation, read-out: LPD IC50 (μM) w/ 30 min preincubation) |
| --- | --- | --- |
| Cc1cc(S(=O)(=O)N(C)CC(=O)Nc2cc(C)n(C)c(=O)c2)c2[nH]ncc2c1 [Example 17, 2-((N,5-dimethyl-1H-indazole)-7-sulfonamido)-N-(1,6-dimethyl-2-oxo-1,2-dihydropyridin-4-yl)acetamide] | 0.052 µM | – |
| Cc1cc(S(=O)(=O)N(CC(=O)Nc2ccn(C)c(=O)c2)C2COC2)c2[nH]ncc2c1 [Example 38, N-(1-methyl-2-oxo-1,2-dihydropyridin-4-yl)-2-((5-methyl-N-(oxetan-3-yl)-1H-indazole)-7-sulfonamido)acetamide] | 0.42 µM | – |
| Cc1cc(S(=O)(=O)N(C)CC(=O)NC2CCN(C)CC2)c2n[nH]cc2c1 [Example 53] | 0.963 µM | – |
| Cc1cc(S(=O)(=O)N(C)CC(=O)NC2CCCOC2)c2n[nH]cc2c1 (centres unmarked) [Example 54] | 0.0906 µM | – |
| Cc1cc(S(=O)(=O)N(C)CC(=O)N[C@H]2CCc3ccccc32)c2n[nH]cc2c1 [Example 55] | 0.874 µM | – |
| Cc1cc(S(=O)(=O)N(C)CC(=O)N[C@@H]2CCc3ccccc32)c2n[nH]cc2c1 [Example 56] | 0.0426 µM | – |
| Cc1cc(S(=O)(=O)N(C)CC(=O)Nc2nc3ccccc3s2)c2n[nH]cc2c1 [Example 58] | 0.0315 µM | – |
| COc1ccc(NC(=O)CN(C)S(=O)(=O)c2cc(C)cc3c[nH]nc23)nc1 [Example 60] | 0.0415 µM | – |
| Cc1cc(S(=O)(=O)N(C)CC(=O)Nc2ccc3ccccc3n2)c2n[nH]cc2c1 [Example 64] | 0.0335 µM | – |
| Cc1cc(S(=O)(=O)N(C)CC(=O)NC2CCOCC2)c2n[nH]cc2c1 [Example 65] | 0.118 µM | – |
| Cc1cc(S(=O)(=O)N(C)CC(=O)NC2CCCN(C)C2)c2n[nH]cc2c1 (centres unmarked) [Example 66] | 0.593 µM | – |
| Cc1cc(S(=O)(=O)N(C)CC(=O)Nc2cc3ccccc3cn2)c2n[nH]cc2c1 [Example 67] | 0.0372 µM | – |
| Cc1cc(S(=O)(=O)N(C)CC(=O)NC2CCN(C)C(=O)C2)c2n[nH]cc2c1 (centres unmarked) [Example 68] | 0.149 µM | – |
| Cc1cc(S(=O)(=O)N2CC[C@H]2C(=O)NC2CCCCC2)c2[nH]ncc2c1 [Example 70, (S)—N-cyclohexyl-1-((5-methyl-1H-indazol-7-yl)sulfonyl)azetidine-2-carboxamide] | 0.279 µM | – |
| Cc1cc(S(=O)(=O)N(C)CC(=O)NC2CCCCC2)c2n[nH]cc2c1 [Example 73] | 0.0858 µM | – |
| Cc1cc(S(=O)(=O)N(C)CC(=O)NC2C(=O)Nc3ccccc32)c2n[nH]cc2c1 (centres unmarked) [Example 77] | 0.803 µM | – |
| Cc1cc(S(=O)(=O)N(C)CC(=O)NC2C(=O)N(C)c3ccccc32)c2n[nH]cc2c1 (centres unmarked) [Example 79] | 0.779 µM | – |
| Cc1cc(S(=O)(=O)N2CC[C@H]2C(=O)NC2COC2)c2[nH]ncc2c1 [Example 80] | 0.285 µM | – |
| Cc1cc(S(=O)(=O)N2CCC2C(=O)NCc2ccccc2)c2[nH]ncc2c1 (centres unmarked) [Example 81] | 0.62 µM | – |
| Cc1cc(S(=O)(=O)N2CC[C@H]2C(=O)Nc2cc3ccccc3cn2)c2[nH]ncc2c1 [Example 82] | 0.0489 µM | – |
| Cc1cc(S(=O)(=O)N2CC[C@H]2C(=O)Nc2ccc3ccccc3n2)c2[nH]ncc2c1 [Example 84] | 0.027 µM | – |
| Cc1cc(S(=O)(=O)N2CC[C@H]2C(=O)Nc2ccc(C#N)c(Cl)c2)c2[nH]ncc2c1 [Example 86] | 0.0414 µM | – |
| Cc1cc(S(=O)(=O)N(C)CC(=O)Nc2ccc3c(c2)OCCN3C2CCOCC2)c2[nH]ncc2c1 [Example 89] | 0.0419 µM | – |
| Cc1cc(S(=O)(=O)N2CC[C@H]2C(=O)Nc2ccn3nccc3c2)c2[nH]ncc2c1 [Example 91] | 0.041 µM | – |
| Cc1cc(S(=O)(=O)N2CCC[C@@H](C(=O)Nc3ccn(C)c(=O)c3)C2)c2[nH]ncc2c1 [Example 96, (R)-1-((5-methyl-1H-indazol-7-yl)sulfonyl)-N-(1-methyl-2-oxo-1,2-dihydropyridin-4-yl)piperidine-3-carboxamide] | 0.112 µM | – |

| Compound | IC50 (read-out: LPD IC50) | IC50 (30 min preincubation, read-out: LPD IC50 (μM) w/ 30 min preincubation) |
| --- | --- | --- |
| Cc1cc(S(=O)(=O)N(C)CC(=O)Nc2ccn3nc(C)cc3c2)c2[nH]ncc2c1 [Example 104] | 0.157 µM | – |
| C#CCNC(=O)CN(C)S(=O)(=O)c1cc(C)cc2cn[nH]c12 [Example 107] | 0.047 µM | – |
| Cc1cc(S(=O)(=O)N(C)CC(=O)NCc2cn(C)nn2)c2[nH]ncc2c1 [Example 108] | 0.111 µM | – |
| Cc1cc(S(=O)(=O)N(C)CC(=O)NCc2ccccc2C)c2[nH]ncc2c1 [Example 109] | 0.107 µM | – |
| Cc1cccc(CNC(=O)CN(C)S(=O)(=O)c2cc(C)cc3c[nH]nc23)c1 [Example 110] | 0.041 µM | – |
| Cc1ccc(CNC(=O)CN(C)S(=O)(=O)c2cc(C)cc3cn[nH]c23)cc1 [Example 111] | 0.0522 µM | – |
| Cc1cc(S(=O)(=O)N(C)CC(=O)N[C@H]2CCCOC2)c2[nH]ncc2c1 [Example 112] | 0.109 µM | – |
| Cc1cc(S(=O)(=O)N(C)CC(=O)N[C@@H]2CCCOC2)c2[nH]ncc2c1 [Example 113] | 0.184 µM | – |
| Cc1cc(S(=O)(=O)N(C)CC(=O)NC2CCc3cnccc32)c2n[nH]cc2c1 (centres unmarked) [Example 114] | 0.0954 µM | – |
| Cc1cc(S(=O)(=O)N(C)CC(=O)Nc2nc3cnccc3s2)c2n[nH]cc2c1 [Example 115] | 0.0276 µM | – |
| Cc1cc(S(=O)(=O)N(C)CC(=O)Nc2nc3c(s2)CCOC3)c2n[nH]cc2c1 [Example 116] | 0.0771 µM | – |
| CCc1cc(S(=O)(=O)N(C)CC(=O)Nc2ccn(C)c(=O)c2)c2n[nH]cc2c1 [Example 117, 2-((5-ethyl-N-methyl-1H-indazole)-7-sulfonamido)-N-(1-methyl-2-oxo-1,2-dihydropyridin-4-yl)acetamide] | 0.05 µM | – |
| CCCc1cc(S(=O)(=O)N(C)CC(=O)Nc2ccn(C)c(=O)c2)c2[nH]ncc2c1 [Example 118] | 0.0702 µM | – |
| Cc1cc(S(=O)(=O)N2CC[C@@H](C(=O)Nc3ccc(N4CCOCC4)c(Cl)c3)C2)c2n[nH]cc2c1 [Example 119] | 0.0348 µM | – |
| Cc1cc(S(=O)(=O)N2CCC(C(=O)Nc3ccc4c(c3)OCCN4C)C2)c2[nH]ncc2c1 (centres unmarked) [Example 120] | 0.0197 µM | – |
| Cc1cc(S(=O)(=O)N(C)CC(=O)Nc2ccc(N3CCOCC3)c(Cl)c2)c2[nH]ncc2c1 [Example 126] | 0.019 µM | 0.015 µM |
| Cc1cc(S(=O)(=O)N(C)CC(=O)NC2(C)CCCCC2)c2n[nH]cc2c1 [Example 127] | 1.14 µM | – |
| Cc1cc(S(=O)(=O)N2CC[C@H]2C(=O)NC2CCOCC2)c2[nH]ncc2c1 [Example 128] | 1.07 µM | – |
| Cc1cc(S(=O)(=O)N(C)CC(=O)Nc2ccn3c(C(F)(F)F)ncc3c2)c2n[nH]cc2c1 [Example 130] | 0.0345 µM | – |
| Cc1cc(S(=O)(=O)N2CC[C@H]2C(=O)NC2CCc3ccccc32)c2[nH]ncc2c1 (some centres unmarked) [Example 131] | 2.52 µM | – |
| Cc1cc(S(=O)(=O)N(C)CC(=O)Nc2ccn(C)c(=O)c2)c2nn[nH]c2c1 [Example 132, 2-((N,5-dimethyl-1H-benzo[d][1,2,3]triazole)-7-sulfonamido)-N-(1-methyl-2-oxo-1,2-dihydropyridin-4-yl)acetamide] | 0.386 µM | – |
| Cc1cc(S(=O)(=O)N(C)CC(=O)Nc2ccn(C)c(=O)c2)c2[nH][nH]c(=O)c2c1 [Example 133, 2-((N,5-dimethyl-3-oxo-2,3-dihydro-1H-indazole)-7-sulfonamido)-N-(1-methyl-2-oxo-1,2-dihydropyridin-4-yl)acetamide] | 0.0706 µM | – |
| Cc1cc(S(=O)(=O)N(C)CC(=O)Nc2ccn(C)c(=O)c2)c2[nH]c(C)cc2c1 [Example 134] | 0.963 µM | – |
| Cc1cc(S(=O)(=O)N2CC[C@H]2C(=O)NC2CCCN(C)C2)c2[nH]ncc2c1 (some centres unmarked) [Example 135-R] | 2.65 µM | – |
